Source: the METLIN SMRT retention time set (Domingo-Almenara et al. 2019)

Experiment: gradient 5% acetonitrile 3 min, to 50% in 2 min, to 85% in 15 min, held 3 min, 100 µL/min
Settings: column: Zorbax Extend-C18 2.1 x 50 mm; eluents: water / acetonitrile, 0.1% formic acid
In short: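 The mobile phases were water and acetonitrile, each with 0.1% formic acid, pumped at 100 μL/min through a Zorbax Extend-C18 column (2.1 × 50 mm, 1.8 μm). Pure standards were injected as mixtures of ~100 molecules and detected by a quadrupole time-of-flight mass spectrometer in positive and negative ionization mode. Retention time came from computationally picked adduct peaks, each inspected by hand.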

| Compound | RP-LC retention time [s] |
| --- | --- |
| COc1ccccc1-c1cc(C(=O)N2CCN(c3cc(=O)n(C(C)C)c(=O)n3C(C)C)CC2)[nH]n1 | 861 |
| CCCN1C(=O)c2c(C(=O)OC)ncn2CC1(C)C(=O)NCc1ccccc1 (stereo not given) | 640 |
| Cc1cc(C)cc(NC(=O)C2CCN(Cc3cnn(-c4ccccc4)c3-n3cccc3)CC2)c1 | 794 |
| CCC(=O)N1CCc2nc(N3CCN(C(=O)CCOC)CC3)sc2C1 | 875 |
| COc1ccc(NC(=O)c2cc3c(=O)oc4ccccc4c3n2C)cc1OC | 850 |
| C=C[C@@]1(C)CC(=O)[C@]2(O)[C@@]3(C)[C@H](O)CCC(C)(C)[C@@H]3[C@H](O)[C@H](OC(C)=O)[C@@]2(C)O1 | 1040 |
| O=C(NCCN1CCc2ccccc2C1)C1CCN(c2nnc3ccccn23)CC1 | 563 |
| O=C(Cn1cnc2ccccc2c1=O)N1CCC(c2nnc(-c3ccco3)s2)CC1 | 643 |
| CCc1nccn1Cc1noc(-c2ccc(C)c(C)c2)n1 | 672 |
| CCCNC(=O)c1cn(-c2ccc(-c3nc(C(C)C)no3)cn2)cn1 | 847 |
| CC1CCN(c2ncc3c(n2)CCC(C(=O)NCCN2CCc4ccccc4C2)C3)CC1 (stereo not given) | 654 |
| CN1CCN(C(CNC(=O)C(=O)Nc2ccc(Cl)cc2)c2ccc3c(c2)OCO3)CC1 (stereo not given) | 716 |
| COc1ccccc1N1CCN(CCCNS(=O)(=O)c2ccc3c(c2)CCCC(=O)N3)CC1 | 616 |
| O=C(NCCS(=O)(=O)N1CCN(c2cccc(Cl)c2)CC1)c1cc2ccccc2o1 | 941 |
| CSc1nnc(-c2nn(C)c3c2CN(C(=O)c2c(F)cccc2F)CC3)n1C | 695 |
| Cc1oc(-c2[nH]ncc2C(=O)N2CCCCC2)cc1S(=O)(=O)Nc1cccc(Cl)c1 | 796 |
| CCN(Cc1ccc(Cl)cc1)Cc1cc(=O)n2ccc(C)cc2n1 | 634 |
| COC(=O)c1ccc(Cl)cc1NC(=O)N1CCN(C)c2ncccc21 | 700 |
| COc1ccc(C(=O)Nc2cc(-c3ccccn3)no2)cc1 | 784 |
| O=C(Cc1csc(-c2c(Cl)cccc2Cl)n1)NCCc1c[nH]c2ccccc12 | 925 |
| CCN(CC)c1nc(C(=O)NCCN2CCOCC2)nc2nc(C)cc(C)c12 | 558 |
| CCn1ccc2sc(C)c(C(=O)NC3CCCC3)c2c1=O | 733 |
| CCOC(=O)c1c(S(=O)(=O)N2CCC(C(=O)NCC3CCCO3)CC2)c(C)n(C)c1C (stereo not given) | 674 |

| Compound | RP-LC retention time [s] |
| --- | --- |
| CCCCN(C)C(=O)Cn1c(CO)nc2ccccc21 | 589 |
| CCCn1c(C)cnc1C1CN(S(=O)(=O)c2ccccc2Cl)C1 | 660 |
| CCn1c(=O)sc2cc(S(=O)(=O)N3CCC(C(=O)Nc4ccc(C)c(F)c4)CC3)ccc21 | 979 |
| CCOc1ccc(C(=O)N2CCC3(CC2)NC(=O)c2ccc(Cl)cc2N3)cc1 | 768 |
| COc1ccccc1NC(=O)NCCC1CCN(S(=O)(=O)c2ccccc2)CC1 | 910 |
| O=C(CCc1csc(NC(=O)c2cccs2)n1)NCCc1c[nH]c2ccccc12 | 755 |
| Cc1nc(-c2ccc(-c3noc(CNC(=O)Cc4ccccc4)n3)cc2)cs1 | 903 |
| CCOC(=O)c1nc(NCc2cc(OC)ccc2OC)c2ccccc2n1 | 768 |
| CCOc1ccc(Nc2nc(-c3nnn(-c4ccc(OCC)cc4)c3C)ns2)cc1 | 1130 |
| Fc1cccc(Cc2noc(-c3nc(-c4ccccc4F)no3)n2)c1 | 1130 |
| CN(C)S(=O)(=O)N1CCCC1Cc1noc(-c2cccnc2)n1 (stereo not given) | 746 |
| COc1ccccc1OCCNC(=O)C1CC(=O)N(c2n[nH]c3cccc(F)c23)C1 (stereo not given) | 688 |
| COc1ccc(-c2c(C)noc2NC(C)=O)cc1S(=O)(=O)N1CCN(c2ccc(F)cc2)CC1 | 843 |
| Cc1ccc2c(c1)C1CC(C)(O2)N(c2cccc(C(=O)NCc3ccco3)c2)C(=O)N1 (stereo not given) | 801 |
| CN1CCN(C(CNC(=O)c2ccc(Cl)cc2)c2ccc(N(C)C)cc2)CC1 (stereo not given) | 557 |
| COc1ccc(OC)c(NC(=O)N2CCc3cn(C)c4cccc(c34)C2)c1 | 943 |
| CCc1nc(-c2cc(S(=O)(=O)Nc3cc(F)ccc3Cl)c(C)s2)cs1 | 1160 |
| CC1CCCN(CCCNC(=O)c2ccc3c(c2)NC(=O)C2CCCN32)C1 (stereo not given) | 579 |
| COc1ccc(NC(=O)C2CCCN(c3nc4cccnc4s3)C2)cc1 (stereo not given) | 797 |
| COc1cc(-c2nnc(/C=C/c3ccccc3)o2)cc(OC)c1OC | 904 |
| CC(C)CNC(=O)c1nnc(-c2ccc(S(=O)(=O)N(C)C)cc2)o1 | 787 |
| O=C(c1ccccc1)N1CCCc2cc(NS(=O)(=O)c3ccccc3Cl)ccc21 | 816 |
| CCc1ccccc1N1C(=O)CN(S(C)(=O)=O)CC1(C)C(=O)NCc1ccc(F)cc1 (stereo not given) | 830 |

| Compound | RP-LC retention time [s] |
| --- | --- |
| Cn1nnnc1C1CCCN(S(=O)(=O)Cc2ccccc2)C1 (stereo not given) | 751 |
| O=C(NCc1nc2ccccc2n1CC(=O)N1CCCC1)c1ccco1 | 587 |
| Cc1ccc(C)c(-c2coc(-c3ccc(NC(=O)C4CCCCC4)cc3)n2)c1 | 1370 |
| Cc1nc(C(=O)Nc2ccc(F)cc2C)c(C)o1 | 889 |
| O=C(Nc1ccc2c(c1)OCCO2)N1CCc2nc(-c3ccc(F)cc3)ncc2C1 | 898 |
| O=C(C1CCN(c2ncnc3c2sc2ncccc23)CC1)N1CCN(c2ccccn2)CC1 | 586 |
| O=C1NCCCn2cc(S(=O)(=O)Nc3ccccc3)cc21 | 630 |
| COc1ccc(Cn2cc(S(=O)(=O)N3CCCCC3)ccc2=O)cc1 | 888 |
| O=C(c1ccsc1)N1[C@H]2CC[C@@H]1c1cnc(-c3ccccc3)nc1C2 | 886 |
| COCCn1c(CCCC(=O)NCc2ccccn2)nc2cccnc21 | 545 |
| Cn1c(=O)n(C)c2cc(CNc3ccc4[nH]c(=O)[nH]c4c3)ccc21 | 561 |
| CC1CCCCN1S(=O)(=O)c1ccc(Cl)c(C(F)(F)F)c1 (stereo not given) | 1120 |
| COc1ccc2cccc(NC(=O)c3csc(C)n3)c2n1 | 1120 |
| O=C(Nc1ccc2c(c1)Cc1ccccc1-2)c1csc(Nc2ncccn2)n1 | 972 |
| Cc1cnc(C(=O)N2CCC(c3noc(-c4ccncc4)n3)C2)cn1 (stereo not given) | 645 |
| O=C(c1cccc(N2CCNC(c3ccccc3)C2)n1)N1CCSCC1 (stereo not given) | 614 |
| O=C(Nc1ccccc1)N1CCC(N2C[C@H]3C[C@H](C2)[C@H]2CCCC(=O)N2C3)CC1 | 590 |
| O=C(Nc1ccsn1)c1ccc(Cl)cc1Cl | 874 |
| CC(=O)Nc1ccc(OCC(=O)NCc2cc(F)cc(F)c2)nc1 | 672 |
| O=C(C1=CN(c2ccc3c(c2)CCC3)c2ccccc2S1(=O)=O)N1CCOCC1 | 850 |
| Cc1c(C(C)(C(=O)O)c2c(C)n(C)c3ccccc23)c2ccccc2n1C | 677 |
| CCOc1ccc(C(Nc2ccccn2)c2ccc3ccc(C)nc3c2O)cc1C (stereo not given) | 811 |
| CCNC(=O)c1sc2nc(-c3ccccc3)c(NCCOC)n2c1C | 712 |

| Compound | RP-LC retention time [s] |
| --- | --- |
| Cc1cc(NC(=O)C(=O)NCc2nc(-c3ccccc3)no2)no1 | 742 |
| Cc1ccc(N2C(=O)SC(N(CC(N)=O)c3ccc(C)cc3)C2=O)cc1 (stereo not given) | 782 |
| Cc1noc(C)c1-c1ccc(S(=O)(=O)N2CCOCC2)cc1 | 807 |
| COc1cc(OC)c(NC(=O)Cc2nnc(-c3ccc4ncccc4c3)o2)cc1Cl | 936 |
| Cc1cc(OCC(=O)Nc2nc(-c3ccccc3)cs2)ccc1Cl | 1180 |
| O=C(CCn1nnc2cc(-c3noc(COc4ccc(F)cc4)n3)ccc21)N1CCCCCC1 | 990 |
| COC(=O)c1c(NCc2ccccc2C)c2cccc(Cl)c2[nH]c1=O | 859 |
| CC(=O)NCCc1csc(C2CCN(C(=O)C3CCC3)CC2)n1 | 625 |
| CCc1nc2cc(-c3noc(COc4cccc(C)c4)n3)ccc2o1 | 1280 |
| CC(C)n1c(CCNC(=O)c2ccccc2Cl)nc2cccnc21 | 651 |
| COc1ccc(S(=O)(=O)N2CCCC(C(=O)Nc3cccc(SC)c3)C2)cc1Cl (stereo not given) | 1060 |
| CC(C(=O)NCc1ccco1)C1CCOCC1 (stereo not given) | 644 |
| CCOC(=O)C1CCN(C(=O)c2cn(-c3cc(N4CCC(C)CC4)ncn3)cn2)CC1 | 941 |
| O=C(c1cc(Br)ccc1Cl)N1CCN(c2ccc(-n3ccnc3)nn2)CC1 | 575 |
| CN1CCCCCCN(C(=O)Cn2c(=O)oc3ccccc32)[C@H]2CCC[C@H]2C1=O | 830 |
| O=c1c2cc(-c3ccc(F)cc3)nn2cnn1Cc1nc(-c2ccc(Cl)cc2)no1 | 1190 |
| CCCN(C(C)=O)c1nc(-c2cccc(Br)c2)cs1 | 1260 |
| Cc1ccc(Cn2cccc2C(=O)C(=O)NCc2ccc(C)o2)cc1 | 1080 |
| CN(CCNC(=O)c1ccc(-c2ccnc(N3CCCC3)n2)cc1)C1CCCCC1 | 611 |
| COc1ccc(-c2nccc(C3CCCN(C(=O)c4ccccc4)C3)n2)cc1 (stereo not given) | 967 |
| CSc1ccccc1-c1nnc(NC(=O)c2cc(Cl)sc2Cl)o1 | 937 |
